ChEMBL document CHEMBL5512691, “Synthetically Feasible De Novo Molecular Design of Leads Based on a Reinforcement Learning Model: AI-Assisted Discovery of an Anti-IBD Lead Targeting CXCR4” (J Med Chem, 2024)
One block for each molecule: values may come before it. Activity calls are given as the source filed them. No cut-off for these calls is given here.

Experiments:
[1] = molecular target: T1, C-X-C chemokine receptor type 4 (Homo sapiens, UniProt P61073); assay: (§1) Competitive binding affinity to CXCR4 (unknown origin) assessed as inhibition of CXCR4 to TN14003 interaction at 10 nM preincubated for 10 mins followed by compound washout and subsequent TN14003 addition for 30 mins prior to incubation under dark condition for 30 mins by DAPI staining based laser scanning confocal microscopic analysis relative to control; parameters: scale not given: the % may be the effect or the level left
RAW264.7 [2] = assay: Inhibition of CXCL-12 induced chemotaxis in mouse RAW264.7 cells at 10 nM incubated for 22 hrs by crystal violet staining based transwell assay; type: functional, cell-based
Mus musculus [3] = assay: Anti-inflammatory activity in DSS induced C57BL/6 mouse model of colitis assessed as reduction in DAI score at 25 mg/kg, IG administered twice daily for 2 weeks (reference value: 3); type: functional
[4] = MRT in Sprague-Dawley rat at 2 mg/kg, iv measured upto 12 hrs by LC-MS/MS analysis; type: ADME, organism-based; details: in vivo
[5] = Cmax in Sprague-Dawley rat at 20 mg/kg, IG measured upto 12 hrs by LC-MS/MS analysis; type: ADME, organism-based; details: in vivo, po
[6] = Tmax in Sprague-Dawley rat at 2 mg/kg, iv measured upto 12 hrs by LC-MS/MS analysis; type: ADME, organism-based; details: in vivo
Mus musculus [7] = assay: Anti-inflammatory activity in DSS induced C57BL/6 mouse model of colitis assessed as alleviation in colon edema at 25 mg/kg, IG administered twice daily for 2 weeks; type: functional, organism-based
Mus musculus [8] = assay: Anti-inflammatory activity in DSS induced C57BL/6 mouse model of colitis assessed as increase in colon length at 25 mg/kg, IG administered twice daily for 2 weeks; type: functional, organism-based
RAW264.7 [9] = assay: Inhibition of CXCL-12 induced chemotaxis in mouse RAW264.7 cells incubated for 22 hrs by transwell assay; type: functional
Mus musculus [10] = assay: Anti-inflammatory activity in DSS induced C57BL/6 mouse model of colitis assessed as decrease in IL-6 expression at 25 mg/kg, IG administered twice daily for 2 weeks by bioluminescence microscopy; type: functional, organism-based
Mus musculus [11] = assay: Anti-inflammatory activity in DSS induced C57BL/6 mouse model of colitis assessed as decrease in number of bleeding points at 25 mg/kg, IG administered twice daily for 2 weeks; type: functional, organism-based
[12] = Clearance in Sprague-Dawley rat at 2 mg/kg, iv measured upto 12 hrs by LC-MS/MS analysis; type: ADME, organism-based; details: in vivo
Mus musculus [13] = assay: Anti-inflammatory activity in DSS induced C57BL/6 mouse model of colitis assessed as decrease in thickness of colon mucosa at 25 mg/kg, IG administered twice daily for 2 weeks by bioluminescence microscopy; type: functional, organism-based
[14] = Volume of distribution in Sprague-Dawley rat at 20 mg/kg, IG measured upto 12 hrs by LC-MS/MS analysis; type: ADME, organism-based; details: in vivo, po
Mus musculus [15] = assay: Anti-inflammatory activity in DSS induced C57BL/6 mouse model of colitis assessed as decrease in inflammatory cell infiltration at 25 mg/kg, IG administered twice daily for 2 weeks by bioluminescence microscopy; type: functional, organism-based
Mus musculus [16] = assay: Anti-inflammatory activity in DSS induced C57BL/6 mouse model of colitis assessed as restoration of structural integrity of epithelium at 25 mg/kg, IG administered twice daily for 2 weeks by bioluminescence microscopy; type: functional, organism-based
[17] = Cmax in Sprague-Dawley rat at 2 mg/kg, iv measured upto 12 hrs by LC-MS/MS analysis; type: ADME, organism-based; details: in vivo
[18] = Clearance in Sprague-Dawley rat at 20 mg/kg, IG measured upto 12 hrs by LC-MS/MS analysis; type: ADME, organism-based; details: in vivo, po
Mus musculus [19] = assay: Anti-inflammatory activity in DSS induced C57BL/6 mouse model of colitis assessed as restoration of number of goblet cells at 25 mg/kg, IG administered twice daily for 2 weeks by bioluminescence microscopy; type: functional, organism-based
[20] = Half-life in Sprague-Dawley rat at 20 mg/kg, IG measured upto 12 hrs by LC-MS/MS analysis; type: ADME, organism-based; details: in vivo, po
Mus musculus [21] = assay: Anti-inflammatory activity in DSS induced C57BL/6 mouse model of colitis assessed as alleviation in body weight loss at 25 mg/kg, IG administered twice daily for 2 weeks; type: functional, organism-based
Mus musculus [22] = assay: Anti-inflammatory activity in DSS induced C57BL/6 mouse model of colitis assessed as decrease in number of bleeding area at 25 mg/kg, IG administered twice daily for 2 weeks; type: functional, organism-based
[23] = Bioavailability in Sprague-Dawley rat at 20 mg/kg, IG measured upto 12 hrs by LC-MS/MS analysis; type: ADME, organism-based; details: in vivo, po
Mus musculus [24] = assay: Anti-inflammatory activity in DSS induced C57BL/6 mouse model of colitis assessed as decrease in IL-1beta expression at 25 mg/kg, IG administered twice daily for 2 weeks by bioluminescence microscopy; type: functional, organism-based
Mus musculus [25] = assay: Anti-inflammatory activity in DSS induced C57BL/6 mouse model of colitis assessed as decrease in inflammatory track infiltration at 25 mg/kg, IG administered twice daily for 2 weeks by bioluminescence microscopy; type: functional, organism-based
[26] = Stability in human plasma assessed as half life measured upto 120 mins by LC-MS analysis; type: ADME, cell-free
[27] = Tmax in Sprague-Dawley rat at 20 mg/kg, IG measured upto 12 hrs by LC-MS/MS analysis; type: ADME, organism-based; details: in vivo, po
Mus musculus [28] = assay: Anti-inflammatory activity in DSS induced C57BL/6 mouse model of colitis assessed as decrease in TNF-alpha expression at 25 mg/kg, IG administered twice daily for 2 weeks by bioluminescence microscopy; type: functional, organism-based
[29] = Half-life in Sprague-Dawley rat at 2 mg/kg, iv measured upto 12 hrs by LC-MS/MS analysis; type: ADME, organism-based; details: in vivo
Mus musculus [30] = assay: Anti-inflammatory activity in DSS induced C57BL/6 mouse model of colitis assessed as decrease in colon MPO level at 25 mg/kg, IG administered twice daily for 2 weeks by microplate reader assay; type: functional, organism-based
[31] = MRT in Sprague-Dawley rat at 20 mg/kg, IG measured upto 12 hrs by LC-MS/MS analysis; type: ADME, organism-based; details: in vivo, po
Mus musculus [32] = assay: Anti-inflammatory activity in DSS induced C57BL/6 mouse model of colitis assessed as decrease in intestinal track inflammation at 25 mg/kg, IG administered twice daily for 2 weeks by bioluminescence microscopy; type: functional, organism-based
Mus musculus [33] = assay: Anti-inflammatory activity in DSS induced C57BL/6 mouse model of colitis assessed as inhibition rate at 25 mg/kg, IG administered twice daily for 2 weeks; type: functional; parameters: scale not given: the % may be the effect or the level left
[34] = Stability in human plasma assessed as compound remaining measured upto 120 mins by LC-MS analysis; type: ADME, cell-free; details: read-out: Stability
[35] = Volume of distribution in Sprague-Dawley rat at 2 mg/kg, IV measured upto 12 hrs by LC-MS/MS analysis; type: ADME, organism-based; details: in vivo
[36] = Stability in human liver microsomes assessed as half life measured upto 45 mins in presence of NADPH by LC-MS analysis; type: ADME, Microsome
Mus musculus [37] = assay: Anti-inflammatory activity in DSS induced C57BL/6 mouse model of colitis assessed as restoration of integrity of glands at 25 mg/kg, IG administered twice daily for 2 weeks by bioluminescence microscopy; type: functional, organism-based
[38] = AUC(0 to t) in Sprague-Dawley rat at 20 mg/kg, IG measured upto 12 hrs by LC-MS/MS analysis; type: ADME, organism-based; details: in vivo, po
[39] = molecular target: T1, C-X-C chemokine receptor type 4; assay: as §1, with “interaction” for “interaction at 10 nM”, “analysis” for “analysis relative to control”
[40] = AUC(0 to infinity) in Sprague-Dawley rat at 2 mg/kg, iv measured upto 12 hrs by LC-MS/MS analysis; type: ADME, organism-based; details: in vivo
[41] = AUC(0 to t) in Sprague-Dawley rat at 2 mg/kg, iv measured upto 12 hrs by LC-MS/MS analysis; type: ADME, organism-based; details: in vivo
[42] = AUC(0 to infinity) in Sprague-Dawley rat at 20 mg/kg, IG measured upto 12 hrs by LC-MS/MS analysis; type: ADME, organism-based; details: in vivo, po
[43] = Stability in human liver microsomes assessed as compound remaining measured upto 45 mins in presence of NADPH by LC-MS analysis; type: ADME, Microsome; details: read-out: Stability

T1 sequence (P61073 whole entry): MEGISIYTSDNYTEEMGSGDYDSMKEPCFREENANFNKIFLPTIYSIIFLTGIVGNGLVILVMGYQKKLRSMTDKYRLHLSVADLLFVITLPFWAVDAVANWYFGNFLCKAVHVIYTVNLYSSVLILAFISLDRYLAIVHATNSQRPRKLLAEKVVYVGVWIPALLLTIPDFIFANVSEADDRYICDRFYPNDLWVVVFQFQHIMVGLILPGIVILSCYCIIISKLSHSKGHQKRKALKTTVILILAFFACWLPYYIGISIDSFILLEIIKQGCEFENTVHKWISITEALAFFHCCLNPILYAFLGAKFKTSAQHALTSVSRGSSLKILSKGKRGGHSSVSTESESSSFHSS

SMILES: O=C(c1cnc2ccccc2c1)N1CCN(c2ccccc2F)CC1
Activity [1]: 52.2%

SMILES: Cc1c(C)c2ccc(OCc3ccc(F)c(F)c3)cc2oc1=O
Activity [1]: 51.9%

SMILES: Cc1ccc(C)c(CC(=O)N2CCN(c3ccccc3)CC2)c1
Activity [1]: 59.5%

SMILES: O=S(=O)(NCc1ccc(-c2ccccc2)cc1)c1cc(F)c(F)cc1F
Activity [1]: 54.9%

SMILES: O=C(c1ccco1)N1CCN(C2CCN(c3ccccc3)CC2)CC1
inhibition (RAW264.7 [2]): Active | Activity (Mus musculus [3]): 1.4 | MRT [4]: 1.03 h | Cmax [5]: 1440 ng/mL | Tmax [6]: 4.8 min | Activity (Mus musculus [7]): Active | Activity (Mus musculus [8]): Active | inhibition (INH) (RAW264.7 [9]): 79.19% | Activity (Mus musculus [10]): Active | Activity (Mus musculus [11]): Active | clearance [12]: 99.4 mL/min/kg | Activity (Mus musculus [13]): Active | Vd [14]: 16.16166 L/kg | Activity (Mus musculus [15]): Active | Activity (Mus musculus [16]): Active | Cmax [17]: 351 ng/mL | CL/F [18]: 109 mL/min/kg | Activity (Mus musculus [19]): Active | half-life [20]: 1.71 h | Activity (Mus musculus [21]): Active | Activity (Mus musculus [22]): Active | bioavailability [23]: 91.1% | Activity (Mus musculus [24]): Active | Activity [1]: 78.9% | Activity (Mus musculus [25]): Active | half-life [26]: > 2 h | Tmax [27]: 0.25 h | Activity (Mus musculus [28]): Active | half-life [29]: 0.81 h | Activity (Mus musculus [30]): Active | MRT [31]: 2.62 h | Activity (Mus musculus [32]): Active | Activity (Mus musculus [33]): 53.3% | remaining at 2 h [34]: 87% | Vd [35]: 6.04 L/kg | half-life [36]: 1.12 h | Activity (Mus musculus [37]): Active | AUC(0-t) at 12 h [38]: 3010 ng·h/mL | IC50 [39]: 3.2 nM | AUC(0-inf) [40]: 340 ng·h/mL | AUC(0-t) at 12 h [41]: 330 ng·h/mL | AUC(0-inf) [42]: 3070 ng·h/mL | remaining at 0.75 h [43]: 62%

SMILES: O=C(NCc1ccccc1-n1cccn1)c1cnc2ccccc2n1
Activity [1]: 11.1%

SMILES: O=C(c1cnc2ccccc2c1)N1CCC(N2CCOCC2)CC1
Activity [1]: 53.6%

SMILES: COc1ccc(C(=O)N[C@@H]2CCc3[nH]c4ccccc4c3C2)cc1
Activity [1]: 38.3%

SMILES: CC(=O)N1CCC(N(Cc2cccc(C)c2O)C(=O)c2cccc3ccccc23)CC1
Activity [1]: 59.2%

SMILES: O=C(c1cnc2ccccc2c1)N1CCC(N2CCCC2)CC1
Activity [1]: 64.5%

SMILES: CC1CN(C(=O)c2ccccc2C(=O)Nc2ccccc2)CCN1C(=O)c1ccc(F)c(F)c1 (configuration not stated)
Activity [1]: 62.7%

SMILES: O=C(NC1CCN(Cc2cccnc2)CC1)c1cnc2ccccc2c1
inhibition (RAW264.7 [2]): Active | Activity (Mus musculus [3]): 2 | Activity (Mus musculus [7]): Active | Activity (Mus musculus [8]): Active | inhibition (INH) (RAW264.7 [9]): 75.63% | Activity (Mus musculus [10]): Active | Activity (Mus musculus [11]): Active | Activity (Mus musculus [21]): Active | Activity (Mus musculus [22]): Active | Activity (Mus musculus [24]): Active | Activity [1]: 67.1% | Activity (Mus musculus [28]): Active | Activity (Mus musculus [30]): Active | Activity (Mus musculus [33]): 33.3% | IC50 [39]: 5.7 nM

SMILES: Cc1cc(O)cc(C(=O)N2CCN(c3ccc(F)cc3)CC2)c1
Activity [1]: 64.3%

SMILES: Fc1ccc(F)c(NCCN2CCN(c3nccc4ccccc34)CC2)c1
Activity [1]: 58.6%

Now from value to molecule, other results behind:

Activity [1]: 40.2%
SMILES: O=C(c1cc2ccccc2[nH]1)N1CCN(c2ccc(Cl)cn2)CC1

Activity [1]: 62.9%
SMILES: c1cc(CN2CCCNCCNCCCNCC2)ccc1CN1CCCNCCNCCCNCC1 [PLERIXAFOR]
Activity (Mus musculus [3]): 1.8 | Activity (Mus musculus [10]): Active | Activity (Mus musculus [24]): Active | Activity (Mus musculus [28]): Active | Activity (Mus musculus [33]): 40%

Activity [1]: 33.7%
SMILES: Cc1cccc(NC(=O)N2CCN(c3nccc4ccccc34)CC2)c1

Activity [1]: 59.1%
SMILES: Cc1ccc(CN2CCN(c3nc(N)c4sccc4n3)CC2)cc1

Activity [1]: 64.8%
SMILES: O=S(=O)(c1ccc(F)c(F)c1)N1CCN(c2ccc3ccccc3n2)CC1

Activity [1]: 61.2%
SMILES: O=C(NC1CCN(Cc2ccccc2)CC1)c1ccc(Cl)cc1Cl

Activity [1]: 55.4%
SMILES: O=C(NO)c1ccc(NC(=O)c2ccccc2C(F)(F)F)cc1
